These results are taken from PubChem BioAssay AID463074 (Broad Institute, 2010).

As a reminder, the AC50 is the concentration giving half of the maximal activity seen.

Active and inactive are the calls of the source.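 The calls were made as follows: active = AC50 no more than tenfold above the top dose tested, or full inhibition at every dose with a flat fit (cut at about 19 µM in these data); inconclusive = flat curve fit with inhibition between 30% and 70%, or poor fit; inactive = AC50 more than tenfold above the top dose tested.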

The test system of this assay is HMLE_sh_eGFP viability, CellTiter-Glo luminescence, 72 h. Briefly: viability loss of HMLE_sh_eGFP cells – cell-based, luminescence, counter-screen for HMLE_sh_ECad selective toxicity project, dose response (AID 463074).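 Also: counterscreen control line to flag general toxicity for the HMLE_sh_ECad screen; potency for loss of viability as luminescence drops below DMSO wells.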 On the technique in general: Counterscreens check selectivity or assay interference.
Regarding `COc1cc(NC2CCCCC2O)c2nc(-c3ccc(Cl)cc3)ccc2c1` (stereo not drawn), the AC50 was 5.65 µM.

For `Oc1ccc(Br)cc1/C=N/NC(=S)NCCc1ccccc1`, the AC50 was 4.19 µM.

Turning to `Cc1cccc(CN2C(=O)/C(=C\c3ccc(C(=O)NCCCN4CCN(C)CC4)cc3)Oc3ccccc32)c1`, the AC50 was 3.62 µM.

For the compound `O=C(/C=C/c1ccc(F)cc1)c1ccccc1Br`, the concentration at half-maximal activity (AC50) is 3.57 µM.

`COc1cc(CNCCc2ccccc2)cc(Cl)c1OCc1ccccc1`: the AC50 is 4.84 µM.

On to `COc1ccc(C=C2C=C(C(C)(C)C)C(=O)C(C(C)(C)C)=C2)cc1OC`, for which the AC50 was 3.47 µM.

For `Clc1ccc(COC(Cn2ccnc2)c2ccc(Cl)cc2Cl)c(Cl)c1` (stereo not drawn), the half-maximal activity concentration (AC50) is 6.47 µM.

As for `O=C(Nc1cc(C(F)(F)F)ccc1N1CCCCC1)c1ccc(Br)o1`, the AC50 was 8.32 µM.

For the compound `Cc1ccc(-c2cc(C(=O)N3N=C(C(F)F)CC3(O)C(F)F)c3ccccc3n2)cc1C` (stereo not drawn), the AC50 was 4.55 µM.

Take `COc1ccc(CCNc2ccc(C(CC(N)=O)NC(=O)c3ccc(Br)cc3)cc2[N+](=O)[O-])cc1` (stereo not drawn): the half-maximal activity concentration (AC50) was 11.7 µM.

As for `CNC(=S)N/N=C/c1cn(Cc2ccc(C)cc2)c2ccccc12`, the AC50 was 5.94 µM.

As for `COc1cc(OC)c(C=O)c(OC(=O)N2CCOCC2)c1`, the AC50 is > 19.5 µM (inactive).

`Cc1ccc(Cl)cc1NC(=O)c1ccccc1OCC(=O)Nc1ccc(Cl)cc1`: the AC50 is 11.5 µM.

For the compound `O=C(/C=C/c1ccncc1)c1ccc(NC(=O)c2ccccc2F)cc1`, the AC50 is 4.38 µM.

With `C=CCc1cccc(/C=N/NC(=O)c2ccc3nc[nH]c3c2)c1O`, the half-maximal activity concentration (AC50) was 6.2 µM.

For the compound `CCN(CC(=O)Nc1ccc(NC(C)=O)cc1)C(=O)c1ccccc1CCc1ccccc1`, the AC50 was > 19.5 µM (inactive).

Take `FC(F)(F)c1cccc(NC(=S)N(CCCN2CCCC2)Cc2cccn2Cc2ccc(Cl)cc2)c1`: the half-maximal activity concentration (AC50) is 3.51 µM.

For the compound `O=C1c2ccccc2NC(c2ccc(-c3cccc(Cl)c3)o2)N1O` (stereo not drawn), the AC50 is 4.85 µM.

Consider `CCOc1ccc(/C=C/C(O)=C2/C(=O)N(C)C3(C)CC2c2ccccc2O3)cc1OC` (stereo not drawn), for which the AC50 was 5.95 µM.

Consider `CC1(C)Cc2ccccc2/C(=C/C(=O)c2ccccc2)N1`, for which the AC50 was 7.27 µM.

Regarding `CCC(=O)Nc1ccc(C(=O)Cn2ncc(Cl)c(Cl)c2=O)cc1`, the AC50 was 7.77 µM.

In the case of `ClC1=C(Cl)C2(Cl)C3C(Cl)C=CC3C1(Cl)C2(Cl)Cl` (stereo not drawn), the AC50 was 6.29 µM.

With `COc1ccc(OC)c(Nc2c3ccccc3nc3ccccc23)c1`, the AC50 is 2.7 µM.

With `C=C(C)[C@@H]1CC[C@]2(C(=O)O)CC[C@]3(C)[C@H](CC[C@@H]4[C@@]5(C)CC[C@H](O)C(C)(C)[C@@H]5CC[C@]43C)[C@@H]12`, the AC50 was 3.97 µM.

On to `COc1cc(-c2noc(C)c2C#Cc2ccccn2)cc(OC)c1OC`, for which the AC50 was 1.16 µM.

For the compound `Cc1ccc2nc(NC(=O)c3cccc(-c4cc5ccccc5oc4=O)c3)sc2c1`, the AC50 was > 19.5 µM (inactive).

With `COc1ccccc1C1c2ccc3ccccc3c2Oc2ncn(CCN(C)C)c(=N)c21` (stereo not drawn), the AC50 was 4.22 µM.

In the case of `Cc1ccccc1CNc1ccc(C(CC(N)=O)NC(=O)c2ccccc2)cc1[N+](=O)[O-]` (stereo not drawn), the half-maximal activity concentration (AC50) is 6.24 µM.

Consider `C/C(=N\NC(=O)c1nnn(-c2nonc2N)c1CN1CCCCC1)c1ccccc1O`, for which the half-maximal activity concentration (AC50) was 4.26 µM.

Regarding `CCC1=NN2C(=N)/C(=C/c3c(C)nn(-c4ccccc4)c3Cl)C(=O)N=C2S1`, the AC50 is > 19.5 µM (inactive).

For the compound `Cn1c(-c2ccccc2)cnc1NCc1ccc(-c2ccccc2)cc1`, the AC50 was 0.683 µM.

On to `O=C(NCc1ccco1)c1ccc2c(c1)N(Cc1ccccc1)CCS2`, for which the AC50 is > 19.5 µM (inactive).

For `O=C1c2ccccc2C2=Nc3ccccc3SC(c3ccc(Cl)cc3)C12` (stereo not drawn), the AC50 was 10.6 µM.

Regarding `O=C(Cn1ncc(Cl)c(Cl)c1=O)N1CCN(S(=O)(=O)c2ccc3ccccc3c2)CC1`, the concentration at half-maximal activity (AC50) was 6.11 µM.

On to `C/C(=N\Nc1ccccc1)c1c(O)n(Cc2ccccc2)c(=O)[nH]c1=O`, for which the AC50 is 1.9 µM.

Regarding `COc1cc(OC)cc(-c2sc3ccc(OC)cc3c2-c2ccc3cc[nH]c3c2)c1`, the concentration at half-maximal activity (AC50) was 3.34 µM.

As to `O=C(Nc1cccc(Cl)c1)c1nc[nH]c1C(=O)NCCCNC(=O)c1[nH]cnc1C(=O)Nc1cccc(Cl)c1`, the half-maximal activity concentration (AC50) is 5.33 µM.

On to `CC(C)COC(=O)c1cccc2c1-c1ccccc1/C2=N\O`, for which the half-maximal activity concentration (AC50) was 5.27 µM.

`CCc1ccc(-c2cc3c(=O)n(CC(=O)NCCN4CCCCC4C)nc(C)n3n2)cc1` (stereo not drawn): the AC50 was 5.23 µM.

For the compound `CC(C)C[C@H]1CN=C(Nc2ccccc2)N1CC1CCC(C(C)(C)C)CC1` (stereo partly drawn), the concentration at half-maximal activity (AC50) was 5.34 µM.

As for `COC(=O)C(Cc1ccc(N(CCCl)CCCl)cc1)N=Cc1ccccc1O` (stereo not drawn), the AC50 is 2.54 µM.

Regarding `CC1=CC(C)(C)N(S(=O)(=O)c2ccc(F)cc2)c2ccc(C)cc21`, the AC50 is 2.61 µM.

Consider `O=C(Nc1ccc2c(c1)OCO2)c1cc(-c2ccc(O)cc2)on1`, for which the AC50 is 1.33 µM.

Turning to `COc1ccc(C(=O)c2ccc3oc(-c4ccc(OC)cc4)c(-c4ccc(O)cc4)c3c2)cc1`, the concentration at half-maximal activity (AC50) is 3.87 µM.

In the case of `Nc1nc(=S)c2ncn([C@@H]3O[C@H](CO)[C@@H](O)[C@H]3O)c2[nH]1`, the concentration at half-maximal activity (AC50) was 0.465 µM.

Regarding `COc1ccc2c(c1)-c1nc(NC(=O)c3cccs3)sc1CC2`, the AC50 is 11.3 µM.

For the compound `COc1cc(/C=C/C(=O)c2ccc(NS(=O)(=O)c3ccc(C)cc3)cc2)cc(OC)c1O`, the AC50 is 4.11 µM.

Regarding `COc1ccc(-c2cccc([C@H]3[C@@H]4C=CCC[C@@]4(C)C(=O)N3Cc3ccccc3)c2)cc1`, the concentration at half-maximal activity (AC50) is 7.45 µM.

As to `O=c1c2ccccc2nc2n1C1(CCCCC1)Cc1ccccc1-2`, the concentration at half-maximal activity (AC50) is 4.03 µM.

`O=C(Nc1ccc(Cl)c(Cl)c1)O/N=C/c1ccncc1`: the AC50 is 10.1 µM.

As for `CC(C)(C)c1ccc(C(=O)NC(=S)Nc2nc3c(s2)CCCC3)cc1`, the AC50 was 2.18 µM.

For `CC(C)=CCc1c(O)c(CC=C(C)C)c2occ(-c3ccc(O)cc3)c(=O)c2c1O`, the AC50 was 3.49 µM.

For the compound `NC(=O)CC(NC(=O)Cc1cccc2ccccc12)c1ccc(NCc2ccccc2)c([N+](=O)[O-])c1` (stereo not drawn), the AC50 was 5.84 µM.

Consider `O=[N+]([O-])c1ccc(COc2ccc(-c3[nH]ncc3-c3ccccc3)c(O)c2)cc1`, for which the concentration at half-maximal activity (AC50) was 8.38 µM.

With `O=Cc1ccc(Oc2cc(-c3ccccc3)nc(-c3ccccc3)n2)cc1`, the AC50 was 7.03 µM.

Take `CC(C)(C)OC(=O)NCCc1nnc(S(=O)(=O)Cc2ccc(Cl)cc2Cl)o1`: the AC50 is 5.73 µM.

Consider `Cc1ccc(C(C#N)c2ccc3c(C(F)(F)F)cc(C(F)(F)F)nc3n2)cc1` (stereo not drawn), for which the concentration at half-maximal activity (AC50) was 2.56 µM.

In the case of `Cc1ccnc(Nc2nc(-c3ccc(O)cc3O)cs2)c1`, the AC50 is 14.9 µM.

Regarding `C[C@@H]1CN([C@@H](C)CO)C(=O)Cc2cc(NC(=O)Nc3ccc(C(F)(F)F)cc3)ccc2O[C@@H]1CN(C)S(=O)(=O)c1ccc(Cl)cc1`, the AC50 is 1.78 µM.

In the case of `Oc1ccc(/C=N/Nc2nc(-c3ccc(Cl)cc3)cc(C(F)(F)F)n2)cc1`, the concentration at half-maximal activity (AC50) was 6.82 µM.

Turning to `CS(=O)(=O)Nc1ccccc1C(=O)Nc1cccc(Cl)c1`, the AC50 was > 19.5 µM (inactive).

Consider `CC(Nc1nc(-c2ccc(Cl)cc2)cs1)c1nc2cc(Cl)c(N3CCCCC3)cc2n1CCOCCO` (stereo not drawn), for which the half-maximal activity concentration (AC50) was 1.97 µM.

For `COc1cccc(/C=N/Nc2ncnc(Cl)c2N)c1O`, the concentration at half-maximal activity (AC50) was 3.29 µM.

Consider `Cc1ccc2nc(-c3cccc(NS(C)(=O)=O)c3)cc(-c3ccccc3)c2c1`, for which the AC50 is 5.53 µM.

In the case of `Cc1ccc(NC(=O)C(=Cc2ccc(C(=O)O)cc2)C(=O)Nc2ccc(C)cc2C)c(C)c1`, the concentration at half-maximal activity (AC50) is 3.16 µM.

Regarding `Oc1ccc(/C=N/Nc2ncc(Br)cn2)c(O)c1`, the concentration at half-maximal activity (AC50) is 5.8 µM.

For the compound `Clc1ccc(C(c2ccccc2Cl)C(Cl)Cl)cc1` (stereo not drawn), the AC50 was 6.32 µM.

With `O=C(Nc1ncc(Cc2cccc([N+](=O)[O-])c2)s1)c1ccco1`, the AC50 was 1.44 µM.

`O=C1Nc2ccc(Cl)cc2[C@@](C#CC2CC2)(C(F)(F)F)O1`: the concentration at half-maximal activity (AC50) is 7.55 µM.

For `COC(=O)c1c(NC(=O)c2ccccc2)sc2c1CC(C)(C)OC2`, the AC50 was > 19.5 µM (inactive).

As to `CC1(C)CCC[C@]2(C)[C@H]3Cc4cc(O)ccc4O[C@]3(C)CC[C@@H]12`, the AC50 is 6.89 µM.

In the case of `CC1(c2ccc(O)cc2)NC(=O)N(c2ccccc2)N1` (stereo not drawn), the AC50 was 8.69 µM.

As to `CSc1ccccc1C(=O)Nc1cc(C)ccc1C`, the AC50 was > 19.5 µM (inactive).

For `O=[N+]([O-])c1cc(S(=O)(=O)C(F)(F)F)ccc1Sc1nc2ccccc2[nH]1`, the AC50 is 4.46 µM.

As to `CCC(O)(CC)C(=O)N/N=C/c1cc(Br)cc(Br)c1O`, the AC50 was 19.8 µM.

Take `CSc1nc2ccccc2cc1/C=C(\C#N)c1cccc(Cl)c1`: the half-maximal activity concentration (AC50) was 2.73 µM.

For the compound `O=C(Nc1cccc(S(=O)(=O)N2CCCCC2)c1)c1ccc([N+](=O)[O-])o1`, the AC50 was 3.83 µM.

`O=C(/C=C/Sc1ccccc1)c1ccc(Cl)cc1`: the AC50 was 4.56 µM.

On to `CCN1C(=O)/C(=C\N2CCN(c3cccc(Cl)c3)CC2)SC1=S`, for which the AC50 was > 19.5 µM (inactive).

In the case of `Cc1ccc(F)c([C@H]2C3C=CCC(c4ccccc4)C3C(=O)N2Cc2ccccc2)c1` (stereo partly drawn), the concentration at half-maximal activity (AC50) was 6.52 µM.

On to `O=C(Nc1nccs1)c1ccc(COc2ccccc2Cl)o1`, for which the AC50 is 10.8 µM.

On to `COc1ccc(Nc2nc(-c3ccccc3O)nc3ccccc23)cc1`, for which the half-maximal activity concentration (AC50) is 4.79 µM.

Turning to `O=c1cc(N2CCCCC2)c(-c2ccccc2)nn1Cc1ccc(Cl)cc1Cl`, the AC50 was 3.96 µM.

As to `Cc1cccc(NC(=O)c2nc[nH]c2C(=O)N[C@H](C)c2ccccc2)c1`, the concentration at half-maximal activity (AC50) was 7.13 µM.

Consider `O=C(Nc1cc(N2CCOCC2)ncn1)NC1(C(F)(F)F)Oc2ccc(Cl)cc2O1` (stereo not drawn), for which the AC50 was 14.7 µM.

`CC(C)C1C(c2ccccc2)N(C)C(c2ccccc2)CC1(O)c1ccccc1` (stereo not drawn): the half-maximal activity concentration (AC50) was 3.35 µM.

As for `Cc1ccc(NC(=O)NCC2CCN(Cc3cccc(Cl)c3)CC2)cc1Cl`, the AC50 was 6.9 µM.

Take `Nc1ccc(N2CCN(Cc3ccccc3Cl)CC2)c(Cl)c1`: the AC50 is 5.59 µM.

In the case of `CCc1ccc2oc(C(=O)NCC(c3ccc(OC)cc3)N3CCCCC3)c(C)c2c1` (stereo not drawn), the AC50 is 6.09 µM.

With `Oc1ccc(-c2csc(Nc3ccccn3)n2)c(O)c1`, the half-maximal activity concentration (AC50) was 3.93 µM.

For the compound `Cc1cc(N2C(=O)C=CC2=O)c([N+](=O)[O-])cc1C`, the concentration at half-maximal activity (AC50) is 5.88 µM.

In the case of `O=C(Nc1ccc(Cl)c(Cl)c1)Nc1ccccc1O`, the concentration at half-maximal activity (AC50) is 12.4 µM.

Take `COc1ccc(/C=C(\C#N)c2c[nH]c3ccccc23)cc1`: the AC50 was 0.577 µM.
